Values after ≈ are worked out from the molar mass of the structure shown.

For data set [1], the system named is Aspergillus fumigatus SANK 10569. The data set is described as follows: In vitro antifungal activity (MIC), Aspergillus fumigatus. It counts as cell-based. Particulars: SANK10569, MIC = lowest concentration causing at least 80% growth inhibition (IC80), RPMI1640 pH 7.0, 30° C., trans isomers. On the procedure:
(§1) The antifungal activities of test compounds were assessed according to their minimum inhibitory concentrations (MICs) which were measured by the methods described below.
(§2) Liquid medium: RPMI1640 medium which was buffered to pH 7.0 (without an indicator) with 0.165M 3-(morpholino)propanesulfonic acid was used for Candida albicans and Aspergillus fumigatus. Yeast Nitrogen Base medium which was buffered to pH 7.0 with 0.165M 3-(morpholino)propanesulfonic acid was used for Cryptococcus neoformans.
(§3) Preparation of inoculation fungi solution: Each test fungi solution of Candida albicans and Cryptococcus neoformans was incubated on Sabouraud agar medium at 35° C. for 48 hours. About five colonies of the test fungi having 1 mm diameter were suspended in physiological saline and the transmittance of the suspension was adjusted to Macfarland 0.5 degree. A one thousand-fold diluted suspension of the resulting suspension was prepared by dilution with the liquid medium described above and was used for Candida albicans. A one hundred-fold diluted suspension of the resulting suspension was prepared by dilution with the liquid medium described above and was used for Cryptococcus neoformans. Aspergillus fumigatus was incubated on Potato dextrose agar at 35° C. for five days. Spores on the agar medium were collected with physiological saline containing 0.05% Tween 80 and the number of spores was adjusted to 2.5×10^7/ml using a blood cell counter. A one thousand-fold diluted suspension was prepared by dilution of the resulting spore suspension with the liquid medium described above and was used for Aspergillus fumigatus.
(§4) Preparation of test compound solution: Each test compound was dissolved in 100% dimethyl sulfoxide and serial two-fold dilutions of each compound were prepared with 100% dimethyl sulfoxide. The final concentration of dimethyl sulfoxide was adjusted to not greater than 1% by dilution with each liquid medium described above respectively.
(§5) Assessment method: Each diluted test compound (100 μl), the inoculation fungi solution (80 μl) and Alamar blue solution (20 μl) was sequentially added to each of wells of microtiter plate having 96 wells. The resulting mixture was incubated at 35° C. (30° C. for Aspergillus fumigatus). When the light absorbance at 570 nm of growth control exceeded 0.6, the MICs were determined. The MICs were defined as the lowest compound concentrations causing at least 80% growth inhibition (IC80) compared with the control to which the test compound was not added.

Data set [2] concerns Cryptococcus neoformans TIMM 1855. Put plainly: In vitro antifungal activity (MIC), Cryptococcus neoformans. The format is cell-based. As to conditions: TIMM1855, MIC = lowest concentration causing at least 80% growth inhibition (IC80), Yeast Nitrogen Base pH 7.0, 35° C., trans isomers. How it is done:
as §1, §2, §3, §4, §5

Data set [3] concerns Candida albicans SANK 51486. The data set is described as follows: In vitro antifungal activity (MIC), Candida albicans. As to conditions: SANK51486, MIC = lowest concentration causing at least 80% growth inhibition (IC80), RPMI1640 pH 7.0, 35° C., trans isomers. The format is cell-based. How it is done: as §1, §2, §3, §4, §5

As a reminder, the melting point is the temperature of the solid-liquid transition. In general, MIC refers to the lowest concentration that inhibits growth of the organism. In turn, `C[C@@H](S[C@H]1CO[C@H](c2cccc(C(=O)Nc3ccc(Cl)cc3)c2)OC1)[C@](O)(Cn1cncn1)c1ccc(F)cc1F` [Example 9, 4′-Chloro-3-[trans-5-[[(1R,2R)-2-(2,4-difluorophenyl)-2-hydroxy-1-methyl-3-(1H-1,2,4-triazol-1-yl)propyl]thio]-1,3-dioxan-2-yl]benzanilide] showed a melting point of 90 °C. In data set [1], this compound showed an MIC of 2 µg/mL (≈ 3.33 µM). In data set [2], this compound showed an MIC of 0.25 µg/mL (≈ 0.416 µM). Also, in data set [3], the MIC was no more than 0.008 µg/mL.

In turn, `C[C@@H](S[C@H]1CO[C@H](c2ccc(C(=O)Nc3ccc(OCC(F)(F)C(F)F)cc3)cc2)OC1)[C@](O)(Cn1cncn1)c1ccc(F)cc1F` [Example 1, 4-[trans-5-[[(1R,2R)-2-(2,4-Difluorophenyl)-2-hydroxy-1-methyl-3-(1H-1,2,4-triazol-1-yl)propyl]thio]-1,3-dioxan-2-yl]-4′-(2,2,3,3-tetrafluoropropoxy)benzanilide] had a melting point of 156 °C. Moreover, inhibition of growth in data set [1] (MIC) required 0.125 µg/mL (≈ 0.179 µM). In data set [2], this compound displayed an MIC of 0.063 µg/mL (≈ 0.0904 µM). The compound also had a minimum inhibitory concentration (MIC) in data set [3] of 0.016 µg/mL (≈ 0.023 µM).

On to `C[C@@H](S[C@H]1CO[C@H](c2ccc(C(=O)NCc3ccc(C#N)cc3)cc2)OC1)[C@](O)(Cn1cncn1)c1ccc(F)cc1F` [Example 26, N-(4-Cyanobenzyl)-4-[trans-5-[[(1R,2R)-2-(2,4-difluorophenyl)-2-hydroxy-1-methyl-3-(1H-1,2,4-triazol-1-yl)propyl]thio]-1,3-dioxan-2-yl]benzamide], for which the melting point turned out to be 188 °C. In data set [1], this compound showed an MIC of 0.25 µg/mL (≈ 0.413 µM). Besides, inhibition of growth in data set [2] (MIC) required 0.25 µg/mL (≈ 0.413 µM). The compound also returned an MIC in data set [3] of 0.016 µg/mL (≈ 0.0264 µM).

Consider `C[C@@H](S[C@H]1CO[C@H](c2ccc(C(=O)Nc3ccc(O)cc3)cc2)OC1)[C@](O)(Cn1cncn1)c1ccc(F)cc1F` [Example 23, 4-[trans-5-[[(1R,2R)-2-(2,4-Difluorophenyl)-2-hydroxy-1-methyl-3-(1H-1,2,4-triazol-1-yl)propyl]thio]-1,3-dioxan-2-yl]-4′-hydroxybenzanilide], for which the melting point worked out at 254 °C. The compound also gave an MIC in data set [1] of 0.5 µg/mL (≈ 0.858 µM). For the same compound, in data set [2], the MIC is 0.25 µg/mL (≈ 0.429 µM). For the same compound, in data set [3], 0.016 µg/mL (≈ 0.0275 µM) was the least that counted as inhibitory (MIC).

For the compound `C[C@@H](SC1COC(c2ccccc2)OC1)[C@](O)(Cn1cncn1)c1ccc(F)cc1F` (some centres unmarked) [Comparative compound (A), reference compound], the MIC in data set [1] was 4 µg/mL (≈ 8.94 µM); in data set [2], 0.25 µg/mL (≈ 0.559 µM); in data set [3], 0.063 µg/mL (≈ 0.141 µM).

Consider `C[C@@H](S[C@H]1CO[C@H](c2ccc3cc(C(=O)Nc4ccc(C#N)cc4)ccc3c2)OC1)[C@](O)(Cn1cncn1)c1ccc(F)cc1F` [Example 3, 4′-Cyano-6-[trans-5-[[(1R,2R)-2-(2,4-difluorophenyl)-2-hydroxy-1-methyl-3-(1H-1,2,4-triazol-1-yl)propyl]thio]-1,3-dioxan-2-yl]-2-naphthoanilide], for which the melting point was found to be 114 °C. The compound further displayed an MIC in data set [1] of 0.063 µg/mL (≈ 0.0982 µM). This compound also came in with an MIC in data set [2] of 0.063 µg/mL (≈ 0.0982 µM). Also, the MIC in data set [3] was no more than 0.008 µg/mL.
